Test: relative thermodynamic stability of crystalline forms (slurry of equal amounts of the two forms in EtOH at various temperatures)
Type: physicochemical
Details: for temperatures at which the form is the thermodynamically most stable crystalline form: enantiotropically related forms
Method: Anhydrous form I and Anhydrous form II are enatiotropically related. […] The transition temperature between anhydrous form I and anhydrous form II was determined by slurring a mixture containing equal amounts of the two forms in EtOH at various temperatures. The transition temperature between anhydrous form I and anhydrous form II is between 35 and 40° C. […] Anhydrous Form II can be synthesized using a crystallization process that is more efficient and results in improved particle size and morphology control relative to anhydrous form I. Anhydrous form II has better crystallinity, better filtration properties and gives better purity rejection than anhydrous form I. Anhydrous form II has better processability for preparing formulations than Anhydrous form I.

Row | SMILES | temperatures at which the form is the thermodynamically most stable crystalline form | stability of crystalline phase (at 25° C.)
1 | Cc1ccc(-n2nccn2)c(C(=O)N2CCN(c3nc4cc(Cl)ccc4o3)CC[C@H]2C)c1 [Anhydrous form II, [(7R)-4-(5-chloro-1,3-benzoxazol-2-yl)-7-methyl-1,4-diazepan-1-yl][5-methyl-2-(2H-1,2,3-triazol-2-yl)phenyl]methanone] | ≥ 40 °C | 
2 | Cc1ccc(-n2nccn2)c(C(=O)N2CCN(c3nc4cc(Cl)ccc4o3)CC[C@H]2C)c1 [Anhydrous form I, [(7R)-4-(5-chloro-1,3-benzoxazol-2-yl)-7-methyl-1,4-diazepan-1-yl][5-methyl-2-(2H-1,2,3-triazol-2-yl)phenyl]methanone] | ≤ 35 °C | most stable crystalline phase

Reference: US9108959B2, “Process for the preparation of an orexin receptor antagonist” (Merck Sharp & Dohme Corp., priority 2011, dated 2015)
